{
  "source": "patent US20090247495A1",
  "about": "“CU[…] AND USES THEREOF” (priority 2007, published 2009)",
  "type_in_all_cases": "cell-based, human",
  "key": {"K562 cells [1]": {"tested_on": "K562 cells", "assay": "Flow cytometry for apoptosis analysis (Annexin V / PI), K562", "details": "80 nM, 48 hours", "description": "(§1) 10^5/ml K562 cells were treated with cucurbitacin B in the presence of complete medium containing 10% FBS for 48 hours. The changes in cell morphology were visualized using Leica DMIL (Leica Microsystem). Cells were harvested and rinsed twice with ice-cold PBS (pH7.4) and a total 2.5×10^5 K562 cells were stained with 10 μl Annexin V and 10 μl propidium iodide in 100 μl 1×binding buffer for 15 minutes in dark and then subjected to apoptosis analysis with FACSCalibar Flow cytometer system (FACS Calibur BD Flow Cytometer). • 6.1.5 Flow Cytometry for Cell Cycle Analysis\nAppropriate number of cell density were seeded into T-25 culture flask and treated with different doses of cucurbitacin B for 2 days. The apoptotic effects of cucurbitacin B on the cells were detected using Flow Cytometry analysis after stained with Anx.V and PI for 15 minutes. […] Cucuribitacin B induced apoptosis in a dose dependent manner, among them, 80 nM induced the highest apoptotic effect in K562 cells, with over 50% cells in apoptotic population and 10% cells in the necrotic population (late apoptotic and necrotic phase). The effect of cucurbitacin B on apoptosis and cell cycle profile in K562 cells were analyzed using flow cytometry, as depicted in FIG. 3."}, "K562 cells [2]": {"tested_on": "K562 cells", "assay": "Cell morphology by microscopy, K562", "details": "48 hours", "description": "as §1\nAfter 48 hours of cucurbitacin B treatment, the cells were viewed using a Leica DMIL microscope at 400×magnification. […] However, the treated cells lost the rounded shape and shrank in size at the highest dose of cucurbitacin B used (80nM)."}, "[3]": {"tested_on": "colon cancer cell line (HT29)", "assay": "MTT cell cytotoxicity assay, HT29", "details": "Homo sapiens, HT-29; 48 hours; read-out: IC50", "description": "Three human cancer cell lines (HepG2(liver), HT29(colon) and MCF-7(breast)) were purchased from American Type Culture Collection (ATCC, Manassas, Va., USA). The cells were cultured in RPMI 1640 medium supplemented with 5% (v/v) fetal bovine serum (FBS) and 100 units/ml penicillin and streptomycin (Invitrogen Life Technologies) in a humidified 5% CO2 atmosphere at 37° C.\nThe cytotoxic effect of CuB and CuD on these three cancer cell lines were determined using MTT (3-[4,5-dimethylthiazol-2-yl]-2,5-diphenyl tetrazolium bromide) labeled cell cytotoxicity assay. A total of 1×10^4 cells were seeded into a 96-well plate for 24 hours prior to cucurbitacin B (CuB) or cucurbitacin D (CuD) treatment. They were then treated with different dosages of CuB/CuD for 48 hours. After the treatment, 20 μl of MTT (5 mg/ml) was added to each well and incubated for 4 hrs. Then the medium was discarded and 100 μl of dimethyl sulfoxide was added. The absorbance at 570 nm was then measured by using FLUOstar OPTIMA equipment (BMG, LABTECH GmbH, Germany). The percentage of inhibition against different dosages of CuB/CuD were plotted using the Prism software and the 50% inhibition concentration (IC50) were obtained."}, "HL60 and U937 cells [4]": {"tested_on": "HL60 and U937 cells", "assay": "Cell cycle analysis by flow cytometry, myeloid leukemia cells", "details": "96 hours", "description": "(§2) HL60 and U937 cells were incubated with vary doses of cucurbitacin B for 96 hours at 37° C. For analysis of cell differentiaion, cells were then incubated with either R-phycoerythrin-conjugated murine anti-human CD11b antibody (DAKO, Carpinteria, Calif.). For analysis of cell cycle, cells were washed and fixed with chilled methanol, and incubated on ice for 30 minutes prior to staining with propidium iodide. All analyses were performed by flow cytometry."}, "HL60 and U937 cells [5]": {"tested_on": "HL60 and U937 cells", "assay": "Cell differentiation: CD11b expression by flow cytometry", "details": "96-hour treatment", "description": "as §2\nFollowing a 96-hour treatment with cucurbitacin B, HL60 (FIG. 14A) and U937 (FIG. 14B) cells were incubated with RPE-conjugated CD11b-specific antibody (dark grey) or RPE-conjugated IgGI control antibody (light grey), and flow cytometry was performed."}, "hsp27": {"tested_on": "hsp27", "assay": "Western blot of hsp27 in HepG2, HT29 and MCF-7 cells", "description": "The human cancer cells line were serum starved for 18 hours prior to CuB/CuD treatment. Cells were incubated in a 6-well plate filled with 5 ml growth medium (RPMI with 0.2% FBS and 1% PS) at the cell density of 1×10^5 cells/ml, in the presence or absence of two different dosages of CuB/CuD for various time intervals. The drug treatment was terminated by centrifugation at 1,500 rpm for 5 minutes and the cells were rinsed twice with phosphate-buffered saline and lysed at 4° C. in a lysis buffer containing 50 mM Tris-HCl, pH7.5, 100 mM NaCl, 5 mM EDTA, 40 mM NaP2O7, 1% Triton X-100, 1 mM dithiothreitol, 200 μM Na3VO4, 100 uM phenylmethysufonyl fluoride, 2 μg/ml leupeptin, 4 μg/ml aprotinin and 0.7 μg/ml pepstatin. The insoluble protein lysate were removed by centrifugation for 10 minutes at 13,000 rpm. Fifteen micrograms of protein lysate was resolved using 10% SDS-polyacryamide gel electrophoresis (PAGE) and then subjected to western blot anaylsis. Western blots were performed with anti-Stat3, anti-Erk1/2 and anti-hsp27 antibodies specific for phosphor- and total Stat3, Erk and hsp27 proteins. The protein bands were then visualized with the Enhanced Chemiluminescence Plus (ECL Plus) detection system (Amersham). • 6.2.8.1 Inhibition Effect Cucurbitacin B/Cucurbitacin D on Stat3 Activation in HepG2 and HT29 Cells\nCells were incubated either with CuB or CuD (25 ug/ml or the dosage of IC50) for various time intervals (5, 10 or 30 mins, 1 or 4 hours). The Stat3 activation was detected by western blot."}, "MAPK signaling pathway": {"tested_on": "MAPK signaling pathway", "assay": "Western blot of MAPK / cell cycle signaling proteins in HL60 cells", "description": "Control cells, as well as cells treated with cucurbitacin B or cucurbitacin D, were harvested and collected by centrifugation. Whole cell extracts were then prepared by lysing the cells using 4% sodium dodecyl sulfate (SDS) gel sample buffer. Cell extracts were boiled for 10 min and chilled on ice, subjected to 12% SDS-polyacrylamide gel electrophoresis, and transferred to a PVDF membrane. Each membrane was cut into to two pieces with one piece incubated at 4° C. overnight with antibodies against cell cycle signaling proteins, such as ERK, phosphorlated-ERK, p38, phosphorlated-p38, Cyclin E, Retinoblastoma, phosphalated-Retinoblastoma and c-myc, and apoptotic protein (PARP). β-actin was used as a control for protein loading. All antibodies were obtained from Cell signaling Technologies (USA). Then membranes were incubated at 37° C. for 1 h with secondary antibody conjugated with peroxidase, and the signal was detected using chemiluminescence detection reagent. The relative protein level was calculated as the ratio of the optical density of the protein of interest to that of β-actin."}, "Jak, Stat3 and c-raf": {"tested_on": "Jak, Stat3 and c-raf", "assay": "Western blot of phosphorylated Jak, Stat3 and c-raf in Panc-1 cells", "details": "IC50 dosage (0.8 uM)", "quoted_text": "The drug treatment was terminated and the cells were rinsed twice with phosphate-buffered saline and lysed at 4° C. in a lysis buffer containing 50 mM Tris-HCl, pH7.5, 100 mM NaCl, 5 mM EDTA, 40 mM NaP2O7, 1% Triton X-100, 1 mM dithiothreitol, 200 μM Na3VO4, 100 uM phenylmethysufonyl fluoride, 2 μg/ml leupeptin, 4 μg/ml aprotinin and 0.7 μg/ml pepstatin. The insoluble protein lysate were removed by centrifugation for 10 minutes at 12,000 rpm. Fifty micrograms of protein lysate was resolved using 10% SDS-polyacryamide gel electrophoresis (PAGE) and then subjected to western blot anaylsis. Western blots were performed with antibodies specific for phosphor- and Jak, Stat3 and c-raf proteins. […] The protein bands were then visualized with the Enhanced Chemiluminescence Plus (ECL Plus) detection system (Amersham).\nThe proteins activation was detected by western blot.\nCell lysate (50 μg) of each sample was separated in 10% SDS-PAGE followed by immuno-blotting with anti-jak1 anti-jak2, anti-jak3, anti-Stat3 and c-raf antibodies to detect the phosphorylated form of jak1, jak2, jak3, Stat3 and c-raf."}},
  "data": [
    {"smiles": "CC(=O)OC(C)(C)/C=C/C(=O)[C@](C)(O)C1[C@H](O)C[C@@]2(C)C3CC=C4C(C[C@H](O)C(=O)C4(C)C)[C@]3(C)C(=O)C[C@]12C", "note": "(stereo partly shown) [cucurbitacin B]", "values": [
      {"measurement": "cells in apoptotic population", "setting": "K562 cells [1]", "result": "over 50%"},
      {"measurement": "cells in the necrotic population (late apoptotic and necrotic phase)", "setting": "K562 cells [1]", "result": 10, "unit": "%"},
      {"measurement": "changes in cell morphology", "setting": "K562 cells [2]; 20 nM and 40 nM", "result": "increase in cell size"},
      {"measurement": "changes in cell morphology", "setting": "K562 cells [2]; 80 nM", "result": "shrinkage of cell size"},
      {"measurement": "IC50", "setting": "[3]", "result": 0.31, "unit": "µg/mL"},
      {"measurement": "cell cycle effect", "setting": "HL60 and U937 cells [4]", "result": "significant S-phase cell cycle arrest"},
      {"measurement": "expression of cell surface marker CD11b", "setting": "HL60 and U937 cells [5]", "result": "enhanced expression"},
      {"measurement": "Hsp27 activation", "setting": "hsp27; HT29, 10 minutes", "result": "significant up-regulation"},
      {"measurement": "Hsp27 activation", "setting": "hsp27; HepG2, 30 minutes", "result": "significant up-regulation"},
      {"measurement": "Hsp27 activation", "setting": "hsp27; MCF-7, 4 hours", "result": "significant up-regulation"},
      {"measurement": "regulation of ERK, cyclin E, retinoblastoma phosphorylation and c-myc", "setting": "MAPK signaling pathway", "result": "ERK activation, followed by cyclin E down-regulation, inhibition of retinoblastoma's phosphorylation, and ultimately down-regulation of c-myc"},
      {"measurement": "Jak and c-raf activation", "setting": "Jak, Stat3 and c-raf; 4 hours", "result": "inhibited significantly"},
      {"measurement": "Stat3 activation", "setting": "Jak, Stat3 and c-raf; 24 hours", "result": "inhibited significantly"}
    ]}
  ]
}
